# Assay results as given in patent US20060088882A1, “Methods for the treatment or prevention of obesity” (priority 2002, published 2006).
# Key:
# VEGFR1 = VEGFR1 (Homo sapiens, UniProt P17948); conditions: cited from earlier work
# VEGFR2 = VEGFR2 (Homo sapiens, UniProt P35968); conditions: cited from earlier work
# 3T3-F442A preadipocytes = assay: In vitro differentiation of 3T3-F442A preadipocytes (Oil Red O staining); assay type: cell-based, mouse
# Protocol: FIGS. 5A-5C are pictures of preadipocyte differentiation. FIG. 5A is a transillumination image of differentiated adipocytes in vitro. FIG. 5B is a fluorescence image of differentiated adipocytes in vivo. FIG. 5C is a picture showing the effect of PPARγ inhibition on adipogenesis. Preadipocytes (1×10^5 cells) were plated in a 6-well plate and transfected at a multiplicity of infection of 10^4 plaque forming units/cell using mock- (upper panels) or PPARγ-DN adenovirus (lower panels) and differentiation was promoted by using media containing 10% FBS.
# FIG. 7A and 7B illustrate the effect of VEGF on preadipocyte differentiation and proliferation. To investigate the effects of VEGF on the in vitro differentiation of preadipocytes, 3T3-F442A cells were grown to confluence in media supplemented with calf serum (FCS, maintenance media), and exposed to increasing concentrations of murine recombinant VEGF164 (R&D Systems, Minneapolis, Minn.) from 0-100 ng/ml. […] Adipocyte differentiation was assessed by Oil Red O staining.
# The bar indicates 50 μm. […] MTT assay was performed at day 4. […] Data are normalized to the control condition (FBS). Error bars represent standard error.
# VEGFR2 expression was undetectable in the preadipocytes.
# preadipocytes [1] = conditions: conditioned media from endothelial cells cultured in the presence of VEGF (50 ng/ml); day 11; normalized to SN control
# From the text: Error bars represent standard error.
# The media was changed every other day.
# preadipocytes [2] = conditions: exogenous VEGF added to culture media, doses as high as 100 ng/ml; MTT assay
# Protocol: For proliferation assays, 500 preadipocytes and fibroblasts were plated in 96 well plates, and mouse recombinant VEGF164 (50 ng/ml) and PBS were added (FIG. 7B). An MTT assay was performed at day 4, when the cells were still subconfluent in all wells. Culture media were changed with 100 μl of fresh media, and 10 μl of sterile tetrazolium salt, MTT (3[4,5-dimethylthiazol-2-yl]-2,5-diphenyl-tetrazolium bromide, Sigma) was added in each well and incubated for four hours at 37° C. Finally, 100 μl of 10% SDS were added, and after incubation at 37° C. overnight, the plate was read at 490 nm. The optical density values were normalized to that of the PBS treated cells and used as a measure of viability.
# For MTT assays, mouse recombinant VEGF (50 ng/ml) and PBS, and rat IgG (1 μg/ml) were used. MTT assay was performed at day 4. The optical density values were normalized to that of the PBS treated cells and were used as a measure of viability (FIGS. 8B and 8C). MTT assay for preadipocytes after four days of culture with endothelial conditioned media. “FBS” denotes non-conditioned culture media with 10% FBS; “SN” denotes supernatant, endothelial conditioned media cultured with 10% FBS but no other additives; “SN/VEGF/IgG” denotes endothelial conditioned media cultured with 10% FBS, VEGF (50 ng/ml) and non-specific IgG (5 μg/ml). Data are normalized to the control condition (FBS). […]
# preadipocytes [3] = conditions: conditioned media from endothelial cells cultured in the presence of VEGF and IgG; MTT assay
# Protocol: For MTT assays, mouse recombinant VEGF (50 ng/ml) and PBS, and rat IgG (1 μg/ml) were used. MTT assay was performed at day 4. The optical density values were normalized to that of the PBS treated cells and were used as a measure of viability (FIGS. 8B and 8C). MTT assay for preadipocytes after four days of culture with endothelial conditioned media. “FBS” denotes non-conditioned culture media with 10% FBS; “SN” denotes supernatant, endothelial conditioned media cultured with 10% FBS but no other additives; “SN/VEGF/IgG” denotes endothelial conditioned media cultured with 10% FBS, VEGF (50 ng/ml) and non-specific IgG (5 μg/ml). Data are normalized to the control condition (FBS). Error bars represent standard error.
# To assess the paracrine effects of VEGF on cell proliferation, preadipocytes were plated as described for FIG. 8B with conditioned media from endothelial cells cultured in the presence of VEGF and IgG. At day 5, the assay was perform as described, and the optical density for the cells cultured in non-conditioned media was used as a measure of viability.
# Chain of VEGFR1 (P17948 27-1338, species assumed): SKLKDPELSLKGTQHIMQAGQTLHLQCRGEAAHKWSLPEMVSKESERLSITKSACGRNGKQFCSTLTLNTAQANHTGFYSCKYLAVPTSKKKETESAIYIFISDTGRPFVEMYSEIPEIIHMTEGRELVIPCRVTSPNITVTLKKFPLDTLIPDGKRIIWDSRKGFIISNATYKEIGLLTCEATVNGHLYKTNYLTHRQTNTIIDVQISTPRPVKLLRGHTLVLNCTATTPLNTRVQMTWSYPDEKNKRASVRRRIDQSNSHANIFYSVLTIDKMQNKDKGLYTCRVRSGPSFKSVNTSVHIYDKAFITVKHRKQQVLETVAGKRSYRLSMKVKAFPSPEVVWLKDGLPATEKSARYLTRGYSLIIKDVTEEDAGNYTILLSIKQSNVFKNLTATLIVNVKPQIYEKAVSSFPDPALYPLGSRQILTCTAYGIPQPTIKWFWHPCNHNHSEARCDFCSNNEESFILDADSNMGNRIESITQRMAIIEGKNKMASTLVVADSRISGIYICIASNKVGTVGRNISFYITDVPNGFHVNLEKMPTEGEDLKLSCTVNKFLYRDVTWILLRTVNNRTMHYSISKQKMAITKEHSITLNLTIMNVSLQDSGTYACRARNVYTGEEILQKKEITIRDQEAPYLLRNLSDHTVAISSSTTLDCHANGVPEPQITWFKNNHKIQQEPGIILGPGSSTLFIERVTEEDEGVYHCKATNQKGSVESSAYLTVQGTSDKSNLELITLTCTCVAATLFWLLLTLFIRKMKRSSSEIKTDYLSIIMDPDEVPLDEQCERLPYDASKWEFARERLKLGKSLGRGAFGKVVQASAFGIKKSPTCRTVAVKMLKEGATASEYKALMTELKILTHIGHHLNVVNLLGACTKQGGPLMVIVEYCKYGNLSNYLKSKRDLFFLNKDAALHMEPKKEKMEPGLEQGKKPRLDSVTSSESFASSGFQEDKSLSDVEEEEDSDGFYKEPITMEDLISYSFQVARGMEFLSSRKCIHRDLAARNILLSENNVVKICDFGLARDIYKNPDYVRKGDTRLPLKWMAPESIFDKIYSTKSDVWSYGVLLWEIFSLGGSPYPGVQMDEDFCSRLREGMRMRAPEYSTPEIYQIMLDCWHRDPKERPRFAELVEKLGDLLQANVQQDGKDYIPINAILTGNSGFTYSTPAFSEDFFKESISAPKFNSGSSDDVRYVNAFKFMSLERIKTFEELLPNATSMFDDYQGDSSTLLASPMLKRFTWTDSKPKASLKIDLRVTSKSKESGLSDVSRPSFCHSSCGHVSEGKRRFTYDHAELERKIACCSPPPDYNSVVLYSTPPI
# Chain of VEGFR2 (P35968 20-1356, species assumed): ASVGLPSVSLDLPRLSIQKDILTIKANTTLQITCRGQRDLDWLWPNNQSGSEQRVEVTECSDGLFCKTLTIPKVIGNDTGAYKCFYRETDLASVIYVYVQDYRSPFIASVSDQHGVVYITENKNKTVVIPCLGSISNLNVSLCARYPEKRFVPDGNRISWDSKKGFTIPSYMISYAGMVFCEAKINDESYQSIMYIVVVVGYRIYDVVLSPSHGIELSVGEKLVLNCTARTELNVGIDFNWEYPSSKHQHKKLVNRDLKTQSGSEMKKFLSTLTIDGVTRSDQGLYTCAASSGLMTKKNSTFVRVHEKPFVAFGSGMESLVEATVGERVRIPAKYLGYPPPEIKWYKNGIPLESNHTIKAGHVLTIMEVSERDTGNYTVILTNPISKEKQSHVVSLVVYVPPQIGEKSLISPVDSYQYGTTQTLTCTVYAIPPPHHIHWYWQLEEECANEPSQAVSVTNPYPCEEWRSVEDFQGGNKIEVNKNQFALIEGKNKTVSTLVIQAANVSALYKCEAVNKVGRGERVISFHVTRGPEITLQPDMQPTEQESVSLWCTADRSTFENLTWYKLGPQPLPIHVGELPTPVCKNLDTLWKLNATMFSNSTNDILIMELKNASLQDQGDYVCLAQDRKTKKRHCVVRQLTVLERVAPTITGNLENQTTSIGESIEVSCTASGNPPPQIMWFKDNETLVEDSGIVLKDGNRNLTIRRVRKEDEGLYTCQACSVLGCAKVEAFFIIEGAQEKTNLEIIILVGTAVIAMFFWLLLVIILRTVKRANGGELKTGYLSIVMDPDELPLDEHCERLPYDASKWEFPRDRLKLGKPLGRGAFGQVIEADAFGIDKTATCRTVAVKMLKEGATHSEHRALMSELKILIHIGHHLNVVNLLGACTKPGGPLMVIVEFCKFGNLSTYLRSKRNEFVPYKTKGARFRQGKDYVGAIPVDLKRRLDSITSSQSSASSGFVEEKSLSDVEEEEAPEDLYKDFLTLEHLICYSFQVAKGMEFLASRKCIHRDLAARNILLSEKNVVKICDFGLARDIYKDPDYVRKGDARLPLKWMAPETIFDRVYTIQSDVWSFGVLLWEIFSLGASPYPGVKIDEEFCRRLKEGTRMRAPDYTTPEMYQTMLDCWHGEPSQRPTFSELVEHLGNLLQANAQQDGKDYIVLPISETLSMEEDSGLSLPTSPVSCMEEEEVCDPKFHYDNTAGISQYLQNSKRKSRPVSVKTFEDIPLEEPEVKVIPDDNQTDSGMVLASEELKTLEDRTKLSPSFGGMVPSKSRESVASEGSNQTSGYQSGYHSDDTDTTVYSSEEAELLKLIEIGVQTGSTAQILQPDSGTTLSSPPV
Compound,inhibition of VEGFR1 (VEGFR1),inhibition of VEGFR2 (VEGFR2),"differentiation rate of preadipocytes (3T3-F442A preadipocytes; differentiation media (10% FBS), VEGF 0-100 ng/ml or 50 ng/ml, Oil Red O staining)","adipose cell differentiation in vitro (3T3-F442A preadipocytes; exogenous VEGF added to culture media, doses as high as 100 ng/ml)","induction of differentiation in preadipocytes (3T3-F442A preadipocytes; maintenance media (10% calf serum), VEGF 0-100 ng/ml or 50 ng/ml, Oil Red O staining)",aP2 expression (differentiation of preadipocytes) (preadipocytes [1]),adipose cell proliferation and survival in vitro (preadipocytes [2]),preadipocyte survival/proliferation (preadipocytes [3])
CCCNC(=O)Nc1ccc(Oc2ncnc3cc(OC)c(OC)cc23)cc1Cl [KRN633],inhibits,inhibits,–,–,–,–,–,–
VEGF,–,–,did not increase the differentiation rate,not significantly affected,did not induce differentiation,almost three-fold increase,not significantly affected,increased preadipocyte survival/proliferation
